Reference: ChEMBL document CHEMBL4819051, “Synthesis and antifungal activity of new hybrids thiazolo[4,5-d]pyrimidines with (1H-1,2,4)triazole” (Bioorg Med Chem Lett, 2021)
≈ marks a conversion by molar mass, not a printed value.

Legend:
[1] = 1-octanol/aqueous buffer distribution coefficient, logP of the compound at pH 7.4; format: physicochemical
Aspergillus niger [2] = assay: Antifungal activity against Aspergillus niger 37a assessed as reduction in fungal growth incubated for 48 hrs by CLSI based serial microbroth dilution method; format: functional
Cyberlindnera jadinii [3] = assay: Antifungal activity against Candida utilis 84 assessed as reduction in fungal growth incubated for 24 hrs by CLSI based serial microbroth dilution method; format: functional; conditions: Williopsis jadinii
Microsporum canis [4] = assay: Antifungal activity against Microsporum canis B-200 assessed as reduction in fungal growth incubated for 48 hrs by CLSI based serial microbroth dilution method; format: functional
Nakaseomyces glabratus [5] = assay: Antifungal activity against Candida glabrata 61L assessed as reduction in fungal growth incubated for 48 hrs by CLSI based serial microbroth dilution method; format: functional
Candida parapsilosis [6] = assay: Antifungal activity against Candida parapsilosis ATCC 22019 assessed as reduction in fungal growth incubated for 48 hrs by CLSI based serial microbroth dilution method; format: functional; conditions: Lodderomyces parapsilosis
Candida tropicalis [7] = assay: Antifungal activity against Candida tropicalis 3019 assessed as reduction in fungal growth incubated for 24 hrs by CLSI based serial microbroth dilution method; format: functional
Candida albicans [8] = assay: Antifungal activity against Candida albicans 604M assessed as reduction in fungal growth incubated for 24 hrs by CLSI based serial microbroth dilution method; format: functional
Pichia kudriavzevii [9] = assay: Antifungal activity against Candida krusei 432M assessed as reduction in fungal growth incubated for 24 hrs by CLSI based serial microbroth dilution method; format: functional
Trichophyton rubrum [10] = assay: Antifungal activity against Trichophyton rubrum 2002 assessed as reduction in fungal growth incubated for 24 hrs by CLSI based serial microbroth dilution method; format: functional
Candida albicans [11] = assay: Antifungal activity against Candida albicans ATCC 24433 assessed as reduction in fungal growth incubated for 48 hrs by CLSI based serial microbroth dilution method; format: functional
Cryptococcus neoformans [12] = assay: Antifungal activity against Cryptococcus neoformans assessed as reduction in fungal growth incubated for 48 hrs by CLSI based serial microbroth dilution method; format: functional
Cyberlindnera jadinii [13] = assay: Antifungal activity against Candida utilis 84 assessed as reduction in fungal growth incubated for 48 hrs by CLSI based serial microbroth dilution method; format: functional; conditions: Williopsis jadinii
Candida albicans [14] = assay: Antifungal activity against Candida albicans ATCC 24433 assessed as reduction in fungal growth incubated for 24 hrs by CLSI based serial microbroth dilution method; format: functional
Trichophyton rubrum [15] = assay: Antifungal activity against Trichophyton rubrum 2002 assessed as reduction in fungal growth incubated for 48 hrs by CLSI based serial microbroth dilution method; format: functional
Microsporum canis [16] = assay: Antifungal activity against Microsporum canis B-200 assessed as reduction in fungal growth incubated for 24 hrs by CLSI based serial microbroth dilution method; format: functional
Candida parapsilosis [17] = assay: Antifungal activity against Candida parapsilosis ATCC 22019 assessed as reduction in fungal growth incubated for 24 hrs by CLSI based serial microbroth dilution method; format: functional; conditions: Lodderomyces parapsilosis
Candida tropicalis [18] = assay: Antifungal activity against Candida tropicalis 3019 assessed as reduction in fungal growth incubated for 48 hrs by CLSI based serial microbroth dilution method; format: functional
Cryptococcus neoformans [19] = assay: Antifungal activity against Cryptococcus neoformans assessed as reduction in fungal growth incubated for 24 hrs by CLSI based serial microbroth dilution method; format: functional
Candida albicans [20] = assay: Antifungal activity against Candida albicans CBS 8837 assessed as reduction in fungal growth incubated for 48 hrs by CLSI based serial microbroth dilution method; format: functional
Candida albicans [21] = assay: Antifungal activity against Candida albicans 604M assessed as reduction in fungal growth incubated for 48 hrs by CLSI based serial microbroth dilution method; format: functional
Pichia kudriavzevii [22] = assay: Antifungal activity against Candida krusei 432M assessed as reduction in fungal growth incubated for 48 hrs by CLSI based serial microbroth dilution method; format: functional
Candida albicans [23] = assay: Antifungal activity against Candida albicans 8R assessed as reduction in fungal growth incubated for 48 hrs by CLSI based serial microbroth dilution method; format: functional
Candida albicans [24] = assay: Antifungal activity against Candida albicans CBS 8837 assessed as reduction in fungal growth incubated for 24 hrs by CLSI based serial microbroth dilution method; format: functional
Aspergillus niger [25] = assay: Antifungal activity against Aspergillus niger 37a assessed as reduction in fungal growth incubated for 24 hrs by CLSI based serial microbroth dilution method; format: functional
Nakaseomyces glabratus [26] = assay: Antifungal activity against Candida glabrata 61L assessed as reduction in fungal growth incubated for 24 hrs by CLSI based serial microbroth dilution method; format: functional
Candida albicans [27] = assay: Antifungal activity against Candida albicans 8R assessed as reduction in fungal growth incubated for 24 hrs by CLSI based serial microbroth dilution method; format: functional

Row | Compound | logD [1] | MIC (Aspergillus niger [2]) | MIC (Cyberlindnera jadinii [3]) | MIC (Microsporum canis [4]) | MIC (Nakaseomyces glabratus [5]) | MIC (Candida parapsilosis [6]) | MIC (Candida tropicalis [7]) | MIC (Candida albicans [8]) | MIC (Pichia kudriavzevii [9]) | MIC (Trichophyton rubrum [10]) | MIC (Candida albicans [11]) | MIC (Cryptococcus neoformans [12]) | MIC (Cyberlindnera jadinii [13]) | MIC (Candida albicans [14]) | MIC (Trichophyton rubrum [15]) | MIC (Microsporum canis [16]) | MIC (Candida parapsilosis [17]) | MIC (Candida tropicalis [18]) | MIC (Cryptococcus neoformans [19]) | MIC (Candida albicans [20]) | further results
1 | Cc1ccc(-n2c(=S)sc3c(=O)n(CCN4CCN(CC(O)(Cn5cncn5)c5ccc(F)cc5F)CC4)cnc32)cc1 (centres undefined) | 2.9 | 32 µg/mL (≈ 51.2 µM) | 2 µg/mL (≈ 3.2 µM) | 32 µg/mL (≈ 51.2 µM) | 32 µg/mL (≈ 51.2 µM) | 0.5 µg/mL (≈ 0.8 µM) | 4 µg/mL (≈ 6.4 µM) | 16 µg/mL (≈ 25.6 µM) | 16 µg/mL (≈ 25.6 µM) | 32 µg/mL (≈ 51.2 µM) | 16 µg/mL (≈ 25.6 µM) | 32 µg/mL (≈ 51.2 µM) | 4 µg/mL (≈ 6.4 µM) | 8 µg/mL (≈ 12.8 µM) | 32 µg/mL (≈ 51.2 µM) | 32 µg/mL (≈ 51.2 µM) | 0.5 µg/mL (≈ 0.8 µM) | 8 µg/mL (≈ 12.8 µM) | 32 µg/mL (≈ 51.2 µM) | 32 µg/mL (≈ 51.2 µM) | MIC (Candida albicans [21]): 32 µg/mL (≈ 51.2 µM); MIC (Pichia kudriavzevii [22]): 32 µg/mL (≈ 51.2 µM); MIC (Candida albicans [23]): 32 µg/mL (≈ 51.2 µM); MIC (Candida albicans [24]): 16 µg/mL (≈ 25.6 µM); MIC (Aspergillus niger [25]): 32 µg/mL (≈ 51.2 µM); MIC (Nakaseomyces glabratus [26]): 4 µg/mL (≈ 6.4 µM); MIC (Candida albicans [27]): 32 µg/mL (≈ 51.2 µM)
2 | Cc1ccc(-n2c(=S)sc3c(=O)n(CCCN4CCN(CC(O)(Cn5cncn5)c5ccc(F)cc5F)CC4)cnc32)cc1 (centres undefined) | 4.1 | 32 µg/mL (≈ 50.1 µM) | 4 µg/mL (≈ 6.26 µM) | 32 µg/mL (≈ 50.1 µM) | 32 µg/mL (≈ 50.1 µM) | 0.5 µg/mL (≈ 0.783 µM) | 8 µg/mL (≈ 12.5 µM) | 32 µg/mL (≈ 50.1 µM) | 16 µg/mL (≈ 25 µM) | 32 µg/mL (≈ 50.1 µM) | 32 µg/mL (≈ 50.1 µM) | 64 µg/mL (≈ 100 µM) | 4 µg/mL (≈ 6.26 µM) | 16 µg/mL (≈ 25 µM) | 32 µg/mL (≈ 50.1 µM) | 32 µg/mL (≈ 50.1 µM) | 0.5 µg/mL (≈ 0.783 µM) | 16 µg/mL (≈ 25 µM) | 64 µg/mL (≈ 100 µM) | 32 µg/mL (≈ 50.1 µM) | MIC (Candida albicans [21]): 32 µg/mL (≈ 50.1 µM); MIC (Pichia kudriavzevii [22]): 32 µg/mL (≈ 50.1 µM); MIC (Candida albicans [23]): 32 µg/mL (≈ 50.1 µM); MIC (Candida albicans [24]): 16 µg/mL (≈ 25 µM); MIC (Aspergillus niger [25]): 32 µg/mL (≈ 50.1 µM); MIC (Nakaseomyces glabratus [26]): 2 µg/mL (≈ 3.13 µM); MIC (Candida albicans [27]): 16 µg/mL (≈ 25 µM)
3 | O=C(Cn1cnc2c(sc(=S)n2-c2ccc(Cl)cc2)c1=O)NCC(O)(Cn1cncn1)c1ccc(F)cc1F (centres undefined) | 1.16 | – | – | – | – | – | – | – | – | – | – | – | – | – | – | – | – | – | – | – | –

Further lines, with some results ahead:

Row | logD [1] | MIC (Aspergillus niger [2]) | MIC (Cyberlindnera jadinii [3]) | MIC (Microsporum canis [4]) | MIC (Nakaseomyces glabratus [5]) | MIC (Candida parapsilosis [6]) | MIC (Candida tropicalis [7]) | MIC (Candida albicans [8]) | MIC (Pichia kudriavzevii [9]) | MIC (Trichophyton rubrum [10]) | MIC (Candida albicans [11]) | MIC (Cryptococcus neoformans [12]) | MIC (Cyberlindnera jadinii [13]) | MIC (Candida albicans [14]) | MIC (Trichophyton rubrum [15]) | MIC (Microsporum canis [16]) | MIC (Candida parapsilosis [17]) | MIC (Candida tropicalis [18]) | MIC (Cryptococcus neoformans [19]) | MIC (Candida albicans [20]) | Compound | further results
4 | 0.79 | – | – | – | – | – | – | – | – | – | – | – | – | – | – | – | – | – | – | – | Cc1ccc(-n2c(=S)sc3c(=O)n(CC(O)(Cn4cncn4)c4ccc(F)cc4F)cnc32)cc1 (centres undefined) | –
5 | 2.91 | – | – | – | – | – | – | – | – | – | – | – | – | – | – | – | – | – | – | – | COc1ccccc1-n1c(=S)sc2c(=O)n(CC(O)CN3CCN(CC(O)(Cn4cncn4)c4ccc(F)cc4F)CC3)cnc21 (centres undefined) | –
6 | – | 16 µg/mL (≈ 24.9 µM) | 1 µg/mL (≈ 1.56 µM) | 4 µg/mL (≈ 6.22 µM) | 32 µg/mL (≈ 49.8 µM) | 0.125 µg/mL (≈ 0.194 µM) | 4 µg/mL (≈ 6.22 µM) | 32 µg/mL (≈ 49.8 µM) | 8 µg/mL (≈ 12.4 µM) | 32 µg/mL (≈ 49.8 µM) | 8 µg/mL (≈ 12.4 µM) | 16 µg/mL (≈ 24.9 µM) | 1 µg/mL (≈ 1.56 µM) | 8 µg/mL (≈ 12.4 µM) | 32 µg/mL (≈ 49.8 µM) | 4 µg/mL (≈ 6.22 µM) | 0.06 µg/mL (≈ 0.0934 µM) | 4 µg/mL (≈ 6.22 µM) | 16 µg/mL (≈ 24.9 µM) | 32 µg/mL (≈ 49.8 µM) | O=c1c2sc(=S)n(-c3ccc(F)cc3)c2ncn1CCCN1CCN(CC(O)(Cn2cncn2)c2ccc(F)cc2F)CC1 (centres undefined) | MIC (Candida albicans [21]): 32 µg/mL (≈ 49.8 µM); MIC (Pichia kudriavzevii [22]): 16 µg/mL (≈ 24.9 µM); MIC (Candida albicans [23]): 32 µg/mL (≈ 49.8 µM); MIC (Candida albicans [24]): 16 µg/mL (≈ 24.9 µM); MIC (Aspergillus niger [25]): 16 µg/mL (≈ 24.9 µM); MIC (Nakaseomyces glabratus [26]): 4 µg/mL (≈ 6.22 µM); MIC (Candida albicans [27]): 32 µg/mL (≈ 49.8 µM)
7 | 0.8 | – | – | – | – | – | – | – | – | – | – | – | – | – | – | – | – | – | – | – | COc1ccccc1-n1c(=S)sc2c(=O)n(CC(=O)NCC(O)(Cn3cncn3)c3ccc(F)cc3F)cnc21 (centres undefined) | –
